According to the NIST ThermoML archive (doi:10.1021/je300152t):
Numbers after ± are expanded uncertainties.

Assays:
[1] = Crystal; DTA
[2] = Molar enthalpy of transition or fusion; conditions: Crystal; DSC

| SMILES | Normal melting temperature [1] | Molar enthalpy of transition or fusion [2] |
| --- | --- | --- |
| CCOc1ccc(NC(C)=O)cc1 [N-(4-ethoxyphenyl)ethanamide] | 134 ± 1 °C | 7.65 ± 0.167 kcal/mol |
| CCOc1cccc(NC(C)=O)c1 [N-(3-ethoxyphenyl)acetamide] | 95 ± 0.9 °C | 6.91 ± 0.239 kcal/mol |
| CC(=O)Nc1ccc(C)cc1 [1-acetamido-4-methylbenzene] | 148.2 ± 0.7 °C | 7.03 ± 0.167 kcal/mol |

Now from value to molecule:

| Normal melting temperature [1] | Molar enthalpy of transition or fusion [2] | SMILES |
| --- | --- | --- |
| 125.1 ± 2.4 °C | 6.07 ± 0.191 kcal/mol | COc1ccc(NC(C)=O)cc1 [N-(4-methoxyphenyl)ethanamide] |
| 113.8 ± 0.4 °C | 5.28 ± 0.12 kcal/mol | CC(=O)Nc1ccccc1 [N-phenylethanamide] |
| 162 ± 1 °C | 7.46 ± 0.359 kcal/mol | O=C(Nc1ccccc1)c1ccccc1 [N-phenylbenzamide] |
